What was measured:
[1] = Selectivity interaction (KinomeScan (DiscoverX)) EUB0001049a CDPK1; details: at 1 µM
[2] = biological target: Sodium-dependent noradrenaline transporter (Homo sapiens, UniProt P23975); experiment: Selectivity interaction (Panel of kinases, GPCRs, ion channels and transporters (enzymatic assay)) EUB0000266bCl SLC6A2
[3] = biological target: Cyclin-dependent kinase 2 (Homo sapiens, UniProt P24941); experiment: Selectivity interaction (ActivX KiNativ screen (kinase selectivity in THP-1 cell lysates)) EUB0000639a CDK2; format: subcellular; details: lysate, at 0.04 µM
[4] = biological target: Serine/threonine-protein kinase 26 (Homo sapiens, UniProt Q9P289); experiment: Selectivity interaction (ActivX KiNativ screen (kinase selectivity in THP-1 cell lysates)) EUB0000639a STK26; format: subcellular; details: lysate, at 1 µM
[5] = biological target: Mitogen-activated protein kinase kinase kinase 14 (Homo sapiens) (UniProt Q99558); experiment: Selectivity interaction (KinomeScan (DiscoverX)) EUB0000695a MAP3K14; details: at 100 nM
[6] = biological target: T1, Protein kinase C iota type (Homo sapiens) (UniProt P41743); experiment: Selectivity interaction (KinomeScan (DiscoverX)) EUB0000695a PRKCI; details: at 100 nM
T1 sequence (whole entry): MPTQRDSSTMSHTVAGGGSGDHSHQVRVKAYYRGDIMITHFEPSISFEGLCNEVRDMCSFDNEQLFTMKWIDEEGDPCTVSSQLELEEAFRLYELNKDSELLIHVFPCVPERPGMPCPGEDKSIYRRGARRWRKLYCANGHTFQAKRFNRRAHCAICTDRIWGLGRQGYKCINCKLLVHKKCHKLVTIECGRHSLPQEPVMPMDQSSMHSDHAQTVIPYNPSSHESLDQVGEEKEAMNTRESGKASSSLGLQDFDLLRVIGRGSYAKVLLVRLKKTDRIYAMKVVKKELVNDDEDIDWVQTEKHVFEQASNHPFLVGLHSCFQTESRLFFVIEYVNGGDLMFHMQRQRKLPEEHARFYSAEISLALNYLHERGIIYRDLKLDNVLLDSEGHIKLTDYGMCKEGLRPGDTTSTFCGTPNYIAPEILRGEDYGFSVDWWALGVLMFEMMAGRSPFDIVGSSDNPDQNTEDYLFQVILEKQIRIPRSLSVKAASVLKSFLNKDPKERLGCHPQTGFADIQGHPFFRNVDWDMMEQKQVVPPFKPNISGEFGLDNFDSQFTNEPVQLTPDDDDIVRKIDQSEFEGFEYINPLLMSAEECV

[7] = biological target: Dual specificity protein kinase CLK2 (Homo sapiens, UniProt P49760); experiment: Selectivity interaction (KinomeScan (DiscoverX)) EUB0001079a CLK2; details: at 1 µM
[8] = biological target: Rho-associated protein kinase 2 (Homo sapiens, UniProt O75116); experiment: Selectivity interaction (KinomeScan (DiscoverX)) EUB0000092b ROCK2; details: at 10 µM
[9] = biological target: Myosin light chain kinase, smooth muscle (Homo sapiens, UniProt Q15746); experiment: Selectivity interaction (KinomeScan (DiscoverX)) EUB0000045b MYLK
[10] = biological target: T2, Serine/threonine-protein kinase TAO1 (Homo sapiens) (UniProt Q7L7X3); experiment: Selectivity interaction (KinomeScan (DiscoverX)) EUB0000045b TAOK1
T2 sequence (whole entry): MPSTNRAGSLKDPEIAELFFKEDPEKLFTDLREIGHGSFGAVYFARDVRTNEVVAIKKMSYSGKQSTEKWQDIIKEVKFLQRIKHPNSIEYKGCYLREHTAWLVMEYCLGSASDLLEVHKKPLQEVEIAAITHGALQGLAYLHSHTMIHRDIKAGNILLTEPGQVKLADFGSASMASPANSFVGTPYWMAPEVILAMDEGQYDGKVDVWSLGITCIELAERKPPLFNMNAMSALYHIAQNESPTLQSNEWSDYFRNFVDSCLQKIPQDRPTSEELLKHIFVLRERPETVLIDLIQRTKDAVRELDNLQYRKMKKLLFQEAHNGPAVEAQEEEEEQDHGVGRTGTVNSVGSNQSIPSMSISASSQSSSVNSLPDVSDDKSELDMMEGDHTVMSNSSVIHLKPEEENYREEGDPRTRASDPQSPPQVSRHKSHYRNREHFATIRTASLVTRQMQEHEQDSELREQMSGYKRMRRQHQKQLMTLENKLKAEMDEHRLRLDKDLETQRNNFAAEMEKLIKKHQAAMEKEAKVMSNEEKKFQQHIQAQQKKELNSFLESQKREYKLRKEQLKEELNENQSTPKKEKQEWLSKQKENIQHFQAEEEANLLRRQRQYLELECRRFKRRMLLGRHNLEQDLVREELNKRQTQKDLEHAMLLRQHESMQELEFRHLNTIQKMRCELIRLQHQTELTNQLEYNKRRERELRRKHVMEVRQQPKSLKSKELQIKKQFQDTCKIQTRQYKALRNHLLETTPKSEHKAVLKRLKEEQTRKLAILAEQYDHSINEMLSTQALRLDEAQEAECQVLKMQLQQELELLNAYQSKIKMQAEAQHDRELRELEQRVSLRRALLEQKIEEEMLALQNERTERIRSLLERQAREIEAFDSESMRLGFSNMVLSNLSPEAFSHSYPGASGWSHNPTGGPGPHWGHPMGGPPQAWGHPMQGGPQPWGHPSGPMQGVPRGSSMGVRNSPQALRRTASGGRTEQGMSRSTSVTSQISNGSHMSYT

[11] = biological target: Interferon-induced, double-stranded RNA-activated protein kinase (Homo sapiens) (UniProt P19525); experiment: Selectivity interaction (KinomeScan (DiscoverX)) EUB0000618a EIF2AK2; details: at 10 µM
[12] = biological target: T3, Uncharacterized serine/threonine-protein kinase SBK3 (Homo sapiens) (UniProt P0C264); experiment: Selectivity interaction (KinomeScan (DiscoverX)) EUB0000618a SBK3; details: at 10 µM
T3 sequence (whole entry): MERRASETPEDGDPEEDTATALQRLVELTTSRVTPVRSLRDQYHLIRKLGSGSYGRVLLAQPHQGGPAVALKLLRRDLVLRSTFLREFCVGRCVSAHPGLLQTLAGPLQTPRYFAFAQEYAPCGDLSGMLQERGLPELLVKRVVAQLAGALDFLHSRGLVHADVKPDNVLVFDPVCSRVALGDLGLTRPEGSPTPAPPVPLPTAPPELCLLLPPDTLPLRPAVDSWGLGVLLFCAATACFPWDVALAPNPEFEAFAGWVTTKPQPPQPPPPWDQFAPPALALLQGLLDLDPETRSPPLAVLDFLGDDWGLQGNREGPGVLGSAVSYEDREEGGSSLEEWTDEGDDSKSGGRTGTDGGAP

[13] = biological target: Death-associated protein kinase 1 (Homo sapiens, UniProt P53355); experiment: Selectivity interaction (KinomeScan (DiscoverX)) EUB0000607a DAPK1; details: at 10 µM

Sequence of Myosin light chain kinase, smooth muscle (Q15746 whole entry): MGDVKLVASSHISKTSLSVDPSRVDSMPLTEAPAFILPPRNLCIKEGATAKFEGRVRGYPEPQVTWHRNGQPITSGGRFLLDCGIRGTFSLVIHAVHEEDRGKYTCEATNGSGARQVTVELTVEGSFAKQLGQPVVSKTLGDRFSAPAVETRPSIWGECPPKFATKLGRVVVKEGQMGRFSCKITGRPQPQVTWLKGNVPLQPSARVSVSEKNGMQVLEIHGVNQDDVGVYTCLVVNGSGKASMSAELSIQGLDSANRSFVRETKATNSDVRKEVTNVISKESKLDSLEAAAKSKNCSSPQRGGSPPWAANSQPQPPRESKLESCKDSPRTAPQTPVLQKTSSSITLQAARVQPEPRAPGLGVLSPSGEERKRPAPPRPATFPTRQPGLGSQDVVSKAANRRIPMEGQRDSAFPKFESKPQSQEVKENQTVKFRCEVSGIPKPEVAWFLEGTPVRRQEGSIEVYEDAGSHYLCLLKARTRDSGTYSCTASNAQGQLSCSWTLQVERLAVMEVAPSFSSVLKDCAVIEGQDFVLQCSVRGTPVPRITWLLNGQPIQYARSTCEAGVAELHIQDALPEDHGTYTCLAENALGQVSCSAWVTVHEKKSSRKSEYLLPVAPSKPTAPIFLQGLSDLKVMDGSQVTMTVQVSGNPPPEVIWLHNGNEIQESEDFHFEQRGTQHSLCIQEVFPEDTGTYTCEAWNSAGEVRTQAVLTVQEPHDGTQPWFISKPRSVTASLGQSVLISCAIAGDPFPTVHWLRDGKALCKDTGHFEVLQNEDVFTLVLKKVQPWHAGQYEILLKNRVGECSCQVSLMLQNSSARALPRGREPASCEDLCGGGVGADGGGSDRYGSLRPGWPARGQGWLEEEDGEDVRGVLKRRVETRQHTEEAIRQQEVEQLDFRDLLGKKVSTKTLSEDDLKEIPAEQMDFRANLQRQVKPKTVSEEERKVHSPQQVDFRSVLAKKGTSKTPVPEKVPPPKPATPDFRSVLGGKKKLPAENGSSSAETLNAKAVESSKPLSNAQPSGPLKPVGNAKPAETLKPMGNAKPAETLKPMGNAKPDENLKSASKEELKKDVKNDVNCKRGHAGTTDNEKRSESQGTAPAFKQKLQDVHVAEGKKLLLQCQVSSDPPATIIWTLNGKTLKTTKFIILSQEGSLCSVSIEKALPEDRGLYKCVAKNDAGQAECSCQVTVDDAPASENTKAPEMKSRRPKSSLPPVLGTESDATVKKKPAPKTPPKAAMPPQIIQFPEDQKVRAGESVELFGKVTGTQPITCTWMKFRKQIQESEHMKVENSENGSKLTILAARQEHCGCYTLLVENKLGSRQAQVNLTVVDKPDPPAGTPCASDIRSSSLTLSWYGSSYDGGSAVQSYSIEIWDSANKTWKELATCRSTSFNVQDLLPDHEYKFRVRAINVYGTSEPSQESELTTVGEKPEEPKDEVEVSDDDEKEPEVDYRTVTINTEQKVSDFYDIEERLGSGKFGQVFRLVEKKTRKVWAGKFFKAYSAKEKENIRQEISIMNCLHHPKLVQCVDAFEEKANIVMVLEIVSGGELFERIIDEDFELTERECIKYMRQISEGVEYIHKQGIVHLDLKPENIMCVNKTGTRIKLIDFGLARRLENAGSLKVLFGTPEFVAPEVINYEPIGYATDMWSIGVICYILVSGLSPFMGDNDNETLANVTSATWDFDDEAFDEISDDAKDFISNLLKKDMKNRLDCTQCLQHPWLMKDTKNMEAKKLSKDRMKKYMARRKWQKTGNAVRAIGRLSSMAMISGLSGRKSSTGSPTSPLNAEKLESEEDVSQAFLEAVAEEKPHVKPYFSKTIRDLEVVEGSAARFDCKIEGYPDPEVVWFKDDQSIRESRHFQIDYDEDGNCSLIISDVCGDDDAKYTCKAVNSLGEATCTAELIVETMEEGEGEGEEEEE
Sequence of Rho-associated protein kinase 2 (O75116 whole entry, looked up): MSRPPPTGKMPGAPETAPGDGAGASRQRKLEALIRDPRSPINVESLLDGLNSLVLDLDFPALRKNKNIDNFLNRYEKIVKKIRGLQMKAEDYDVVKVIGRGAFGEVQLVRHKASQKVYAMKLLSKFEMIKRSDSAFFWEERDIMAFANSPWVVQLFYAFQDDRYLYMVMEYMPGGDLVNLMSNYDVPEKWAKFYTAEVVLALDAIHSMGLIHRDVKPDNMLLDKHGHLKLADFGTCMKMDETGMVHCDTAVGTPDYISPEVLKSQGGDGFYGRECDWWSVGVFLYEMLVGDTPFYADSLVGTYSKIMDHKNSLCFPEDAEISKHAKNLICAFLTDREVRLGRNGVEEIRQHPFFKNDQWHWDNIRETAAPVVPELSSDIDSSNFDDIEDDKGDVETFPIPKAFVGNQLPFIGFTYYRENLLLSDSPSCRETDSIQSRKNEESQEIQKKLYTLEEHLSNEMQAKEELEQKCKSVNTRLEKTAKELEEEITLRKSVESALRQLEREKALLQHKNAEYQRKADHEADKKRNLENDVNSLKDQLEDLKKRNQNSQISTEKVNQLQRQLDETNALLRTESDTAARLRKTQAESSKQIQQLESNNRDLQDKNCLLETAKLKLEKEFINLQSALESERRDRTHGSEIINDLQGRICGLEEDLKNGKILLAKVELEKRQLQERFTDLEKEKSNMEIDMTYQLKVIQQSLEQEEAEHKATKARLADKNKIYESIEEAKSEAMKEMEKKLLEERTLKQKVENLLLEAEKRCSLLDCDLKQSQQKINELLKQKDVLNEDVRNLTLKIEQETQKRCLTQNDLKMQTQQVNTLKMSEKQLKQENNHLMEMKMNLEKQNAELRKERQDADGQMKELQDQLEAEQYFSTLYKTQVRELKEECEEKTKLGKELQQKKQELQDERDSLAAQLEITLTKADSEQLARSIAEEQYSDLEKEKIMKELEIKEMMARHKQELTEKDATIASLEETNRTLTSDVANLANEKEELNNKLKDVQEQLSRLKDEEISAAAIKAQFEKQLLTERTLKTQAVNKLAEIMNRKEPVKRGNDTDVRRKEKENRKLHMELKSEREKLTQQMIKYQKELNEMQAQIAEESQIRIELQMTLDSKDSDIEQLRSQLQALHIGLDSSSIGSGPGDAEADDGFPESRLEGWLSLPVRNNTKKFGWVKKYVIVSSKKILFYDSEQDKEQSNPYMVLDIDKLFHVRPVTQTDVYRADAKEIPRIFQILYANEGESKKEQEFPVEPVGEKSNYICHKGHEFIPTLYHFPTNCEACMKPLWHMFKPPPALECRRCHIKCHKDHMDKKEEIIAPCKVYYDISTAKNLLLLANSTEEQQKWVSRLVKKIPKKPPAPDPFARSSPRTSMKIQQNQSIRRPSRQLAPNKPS
Sequence of Sodium-dependent noradrenaline transporter (P23975 whole entry): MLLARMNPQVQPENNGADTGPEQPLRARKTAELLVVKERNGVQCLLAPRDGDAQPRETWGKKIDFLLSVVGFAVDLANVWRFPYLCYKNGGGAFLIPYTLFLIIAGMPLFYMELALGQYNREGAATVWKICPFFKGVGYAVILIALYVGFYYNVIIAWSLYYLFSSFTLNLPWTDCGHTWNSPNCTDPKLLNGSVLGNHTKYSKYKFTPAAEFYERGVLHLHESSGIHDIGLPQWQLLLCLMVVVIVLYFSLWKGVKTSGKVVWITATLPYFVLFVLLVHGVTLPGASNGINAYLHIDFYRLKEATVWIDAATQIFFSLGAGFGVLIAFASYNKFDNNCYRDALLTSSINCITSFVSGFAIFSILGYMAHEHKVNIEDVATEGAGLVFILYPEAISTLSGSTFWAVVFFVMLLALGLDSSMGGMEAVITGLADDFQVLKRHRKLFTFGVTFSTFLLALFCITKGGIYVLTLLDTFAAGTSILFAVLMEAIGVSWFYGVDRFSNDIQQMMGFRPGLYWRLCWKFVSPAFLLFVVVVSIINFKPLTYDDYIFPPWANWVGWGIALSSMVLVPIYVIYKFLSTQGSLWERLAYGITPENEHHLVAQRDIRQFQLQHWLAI
Sequence of Serine/threonine-protein kinase 26 (Q9P289 2-416 limits assumed): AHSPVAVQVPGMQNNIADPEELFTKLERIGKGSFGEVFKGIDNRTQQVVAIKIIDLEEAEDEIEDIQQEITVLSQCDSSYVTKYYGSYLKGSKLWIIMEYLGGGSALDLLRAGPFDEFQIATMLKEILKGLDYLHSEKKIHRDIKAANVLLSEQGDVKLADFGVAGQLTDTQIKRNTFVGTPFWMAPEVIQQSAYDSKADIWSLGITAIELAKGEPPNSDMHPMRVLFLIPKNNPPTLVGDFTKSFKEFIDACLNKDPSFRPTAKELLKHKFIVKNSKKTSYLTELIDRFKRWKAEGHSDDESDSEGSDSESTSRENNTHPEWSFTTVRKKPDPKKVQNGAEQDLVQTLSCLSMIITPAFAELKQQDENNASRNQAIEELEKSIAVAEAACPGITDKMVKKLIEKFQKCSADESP
Sequence of Interferon-induced, double-stranded RNA-activated protein kinase (Homo sapiens) (P19525 whole entry): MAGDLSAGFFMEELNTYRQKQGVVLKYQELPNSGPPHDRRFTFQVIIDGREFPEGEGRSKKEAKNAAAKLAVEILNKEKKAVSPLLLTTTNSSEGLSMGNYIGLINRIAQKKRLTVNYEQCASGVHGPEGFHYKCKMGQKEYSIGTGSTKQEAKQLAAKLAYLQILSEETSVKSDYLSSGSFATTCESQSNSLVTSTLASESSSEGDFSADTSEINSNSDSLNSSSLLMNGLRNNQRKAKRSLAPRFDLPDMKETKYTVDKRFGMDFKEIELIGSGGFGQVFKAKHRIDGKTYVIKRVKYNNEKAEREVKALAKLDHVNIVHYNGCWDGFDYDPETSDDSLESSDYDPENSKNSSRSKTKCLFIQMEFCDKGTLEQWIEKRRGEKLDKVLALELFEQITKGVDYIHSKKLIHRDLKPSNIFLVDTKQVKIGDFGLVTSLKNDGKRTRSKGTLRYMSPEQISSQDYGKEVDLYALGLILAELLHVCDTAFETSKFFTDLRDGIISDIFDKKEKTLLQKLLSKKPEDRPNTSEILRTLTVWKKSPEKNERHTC

For `COc1cc(Nc2nc(C)cc(-c3cnn4nc(OC)ccc34)n2)cc(C(F)(F)F)c1`, the % of control [1] was 74%.

Work on `CCn1c(-c2nc3cc(C(=O)N4CCCC(N)C4)ccc3n2C)cc2ccccc21` (stereo not given) yielded a pXC50 [2] of 4.4 M.

`CC[C@@H]1[C@H](F)C(=O)N[C@@H]1COc1nccc2cc(C(N)=O)c(OC)cc12` [ZIMLOVISERTIB] gave a % of inhibition [3] of -1.2% and a % of inhibition [4] of -9.2%.

In the case of `Cc1cc(F)c(C(=O)Nc2cccc(-c3nncn3C(C)C)n2)cc1-n1cnc(C2CC2)c1`, the % of control [5] is reported as 36% and the % of control [6] is reported as 95%.

`Nc1cnc(N2CCc3cc(S(=O)(=O)Nc4c(F)cc(Cl)cc4F)cc(N4CCCC4=O)c32)nc1` [TP-020n] showed a % of control [7] of 100%.

With `CCC(=O)N1CCN(c2ccc(-n3c(=O)ccc4cnc5ccc(-c6cnc7ccccc7c6)cc5c43)cc2C(F)(F)F)CC1` the % of control [8] was 50%.

Work on `C=CC(=O)Nc1cc(-n2c(=O)ccc3cnc4ccc(-c5ccc(NS(C)(=O)=O)cc5)cc4c32)ccc1C` yielded a % of control ([9]; at 1 µM) of 90%, a % of control ([9]; at 10 µM) of 100% and a % of control ([10]; at 1 µM) of 100%. The % of control ([10]; at 10 µM) was 79%.

For `O[C@H]1CC[C@H](Nc2ncc3nc(Nc4c(F)cc(F)cc4F)n([C@H]4CCOC4)c3n2)CC1`, the % of control [11] was 100% and the % of control [12] was 100%.

`CNC(=O)Nc1ccc(-c2nc(N3CC4CCC(C3)O4)c3cnn(C4CCC5(CC4)OCCO5)c3n2)cc1` gave a % of control [13] of 12%.

Source: ChEMBL document CHEMBL5465560, “Selectivity Literature for EUbOPEN Chemogenomic Library” (2024)
